These results are taken from US9988371B2, “Benzimidazole analogues and related methods” (The Arizona Board of Regents, on Behalf of the University …, priority 2014, dated 2018).

The target of one data set is VEGFR2 (Homo sapiens, UniProt P35968). Kind of data set: VEGFR2 autophosphorylation immunoblot in HEK293 cells stimulated with VEGF. The format is cell-based. On the set-up: expressed in transfected cells; host or cells: HEK293. The procedure: FIG. 4: Photograph of blot showing inhibition of VEGFR2 phosphorylation ectopically expressed in HEK293 cells by indicated doses of Pz-1 or vehicle (NT: not treated). HEK293 cells were transiently transfected with vector expressing VEGFR2. 36 hr following transfection, cells were serum-starved for 12 hr, treated for 2 hr with indicated concentrations of Pz-1 and finally treated with VEGF-A (100 ng/ml) for 15 min. 50 μg of total cell lysates were subjected to immunoblotting with anti-phospho-Y1175 (αpVEGFR2) VEGFR2 antibodies. The blot was normalized using anti-VEGFR2 (αVEGFR2) antibody.
Sequence of VEGFR2 (P35968 20-1356): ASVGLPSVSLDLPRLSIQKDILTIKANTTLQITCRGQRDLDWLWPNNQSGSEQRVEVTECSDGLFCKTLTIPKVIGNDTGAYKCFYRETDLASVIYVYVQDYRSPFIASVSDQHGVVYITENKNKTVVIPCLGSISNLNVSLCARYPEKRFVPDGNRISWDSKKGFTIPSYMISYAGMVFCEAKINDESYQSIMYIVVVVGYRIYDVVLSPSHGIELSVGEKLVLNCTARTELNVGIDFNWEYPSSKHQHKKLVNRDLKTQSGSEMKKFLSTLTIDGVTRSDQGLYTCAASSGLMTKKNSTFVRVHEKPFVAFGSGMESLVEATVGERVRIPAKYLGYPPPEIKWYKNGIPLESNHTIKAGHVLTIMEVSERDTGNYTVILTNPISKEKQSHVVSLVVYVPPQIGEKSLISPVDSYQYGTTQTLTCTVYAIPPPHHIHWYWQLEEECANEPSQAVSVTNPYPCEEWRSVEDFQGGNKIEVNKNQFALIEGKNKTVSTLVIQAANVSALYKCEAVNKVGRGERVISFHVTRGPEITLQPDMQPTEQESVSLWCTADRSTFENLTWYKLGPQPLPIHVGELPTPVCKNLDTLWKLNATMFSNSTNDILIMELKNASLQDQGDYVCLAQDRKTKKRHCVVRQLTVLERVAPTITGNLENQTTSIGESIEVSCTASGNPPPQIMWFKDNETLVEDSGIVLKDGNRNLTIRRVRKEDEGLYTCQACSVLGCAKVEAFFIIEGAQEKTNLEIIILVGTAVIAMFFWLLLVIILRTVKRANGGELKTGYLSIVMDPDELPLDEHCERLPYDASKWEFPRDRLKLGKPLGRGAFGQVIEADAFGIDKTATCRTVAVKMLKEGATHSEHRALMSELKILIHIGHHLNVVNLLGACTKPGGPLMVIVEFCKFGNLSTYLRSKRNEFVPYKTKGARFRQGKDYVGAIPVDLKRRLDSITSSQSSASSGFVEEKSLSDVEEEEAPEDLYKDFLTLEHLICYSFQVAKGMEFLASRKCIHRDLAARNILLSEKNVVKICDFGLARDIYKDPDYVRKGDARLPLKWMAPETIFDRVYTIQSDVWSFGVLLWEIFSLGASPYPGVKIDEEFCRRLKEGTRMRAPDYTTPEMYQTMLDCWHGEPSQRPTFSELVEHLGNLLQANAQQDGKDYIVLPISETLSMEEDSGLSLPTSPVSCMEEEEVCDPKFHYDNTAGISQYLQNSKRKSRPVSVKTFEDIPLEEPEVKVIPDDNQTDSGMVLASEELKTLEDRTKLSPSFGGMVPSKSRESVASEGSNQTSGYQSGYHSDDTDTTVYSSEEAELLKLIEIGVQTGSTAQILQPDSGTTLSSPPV
The inhibition of RET auto-phosphorylation by Pz-1 was measured in several different cell lines including NIH3T3 fibroblasts expressing RET/C634Y or RET/M918T, TT expressing RET/C634W (MTC), Nthy-ory-3-1 (thyroid, non-transformed with RET; negative control), HEK293/RET/PTC1 (CCDC6-RET that can be found in PTC & lung cancer), HEK293/RET-KIF5B (that can be found in lung cancer), HEK293/RET/PTC3 (NCOA4-RET, that can be found in PTC & lung cancer), and HEK293 transfected with RET/C634R-V804M (FIGS. 1-3). HEK293 cells were transiently transfected with expression vectors comprising the desired mutant. […]
Protein lysates were prepared according to standard procedures. […] Immune complexes were detected with the enhanced chemiluminescence kit (Amersham Pharmacia Biotech, Little Chalfort, UK). […]
(In general: A western blot detects proteins with antibodies after separation by electrophoresis.)

A further data set in a line: PK study in rats. The format is in vivo. As to the method: For PK studies of Pz-1 in animals, a solution formulation for oral administration was created in 500 μL of polysorbate 80, 500 μL of EtOH, and 1.0 mL of pH 2 buffer. For the toxicity studies, a suspension formulation was developed in tween 20 (20%) and xanthan gum (0.125%).
T112 (3-4 hrs) in rats was in line with T1/2 in mice (4.2 hrs).

One may read the half-life as the time in which the quantity being followed falls by half. In the case of `Cn1cc(-c2ccc3c(c2)ncn3-c2ccc(CC(=O)Nc3cc(C(C)(C)C)on3)cc2)cn1` [Pz-1, N-(5-(tert-butyl)isoxazol-3-yl)-2-(4-(5-(1-methyl-1H-pyrazol-4-yl)-1H-benzo[d]imidazol-1-yl)phenyl)acetamide], the “inhibition of VEGFR2 autophosphorylation” value on VEGFR2 (1 nM, HEK 293 transiently transfected with VEGFR2, stimulated with VEGF) was “strongly inhibited”. In addition, on VEGFR2 (nanomolar concentrations), the “inhibition of VEGFR2 auto-phosphorylation” value is 90%. Also, the T112 in the data set “PK study in rats” fell in the range of 3 to 4 h. Moreover, the volume distribution in “PK study in rats” came out at 2.02 L/kg. Also, the AUC in the data set “PK study in rats” (1 mg/kg (IV)) was determined as 1.9 µg/h/mL; in “PK study in rats” (10 mg/kg (oral)) it was 19 µg/h/mL. In the data set “PK study in rats” (oral), this compound displayed a bioavaliblity of 97%. The half-life in the data set “PK study in rats” (rat, in vivo, 10 mg/kg, oral study, read-out: elimination half-life (converted)) was 4.2 h. Further, the clearance in “PK study in rats” (rat, in vivo, oral, 10 mg/kg) was 9 mL/min/kg.
